In patent US20180207228A1, “PEPTIDE COMBINATIONS AND USES THEREOF FOR TREATING GRASS ALLERGY” (ALK-Abelló A/S, priority 2015, published 2018):
Where no end group is shown, it is not given here.

Assays:
[1] = tested on: release of IFN-γ upon T cell activation; test: Fluorospot assay, IFN-γ release (DK1-TCL01, US1-TCL01); assay type: cell-based, human; settings: head prints TCL-02 DK1; 17 TCL-01 DK1 lines
Outline: (§1)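 A peptide counted as a hit at ≥20 SFC/10^6 cells, stimulation index ≥2 over medium, and p and Poisson ≤0.05. Cells came from TCL01 lines, raised from allergic donors' CD8-depleted PBMCs over 14 days of natural-allergen stimulation with IL-2. They were exposed to 2 μg/ml peptide or peptide mix for 20 h at 37° C.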

[2] = tested on: allergen specific T cells; test: T cell proliferation assay (72 h) on donor derived T cell lines (TCL02/TCL03); assay type: cell-based, human; settings: for Proliferation % donor coverage (TCL-02 DK1): T cell lines TCL-02 DK1, 30 donors, hit criteria SI>=2, CPM>=1000; for Proliferation strength (TCL-02 DK1): T cell lines TCL-02 DK1, strength of response (average relative magnitude)
Outline: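 Overlapping 20-mer and selected 15-mer grass allergen peptides were screened for proliferation using TCL02 (day 24) or TCL03 (day 34) lines. Lines came from grass-allergic donors' CD8-depleted PBMCs, primed with natural allergen mix and expanded with irradiated autologous or allogeneic APCs, PHA-P 0.5 μg/ml and rIL-2.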

[3] = tested on: release of IL-5 upon T cell activation; test: Fluorospot assay, IL-5 release (DK1-TCL01, US1-TCL01); assay type: cell-based, human; settings: head prints TCL-02 DK1; text: 25 TCL-01 DK1 lines
Outline: as §1

[4] = target: 25 HLA Class II alleles (purified class II MHC molecules); test: competitive radiolabelled-peptide binding to purified HLA class II (25 alleles, binder if IC50 <300 nM); worldwide phenotypic coverage of the alleles found to bind

Measured binding coverage 25 alleles [4] [%]	Molecule	IFN-gamma % donor coverage (TCL-02 DK1) [1] [%]	Proliferation % donor coverage (TCL-02 DK1) [2] [%]	Proliferation strength (TCL-02 DK1) [2]	IL-5-Fluorospotr % donor coverage (TCL-02 DK1) [3] [%]
–	PFDGMTASGNEPIFKDGLGS-OH [compound 94]	4.00	16.67	2.90	4.00
–	YASGKVWGQKYFKGNFERLA-OH [compound 58]	0.00	20.00	2.40	4.00
–	SKYPSGTKITFHIEKGSNDH-OH [compound 103]	4.00	36.67	6.50	8.00
–	IKYTRPGDSLAEVELRQHGS-OH [compound 42]	0.00	16.67	0.80	0.00
–	RASYEIKSKEPVESSGEPVL-OH [compound 96]	0.00	6.67	0.60	0.00
–	PYVSKNPRQAYANYRDIDLG-OH [compound 56]	4.00	20.00	3.10	0.00
–	CC[C@H](C)[C@H](NC(=O)[C@H](CCCCN)NC(=O)[C@H](CCC(=O)O)NC(=O)[C@@H](NC(=O)[C@@H](N)CC(C)C)[C@@H](C)CC)C(=O)N[C@@H](CC(N)=O)C(=O)N[C@@H](C)C(=O)NCC(=O)N[C@@H](Cc1ccccc1)C(=O)N[C@@H](CCCCN)C(=O)N[C@@H](C)C(=O)N[C@@H](C)C(=O)N[C@H](C(=O)N[C@@H](C)C(=O)N[C@@H](C)C(=O)O)C(C)C [compound 123]	0.00	53.33	7.90	12.50
–	AEPAGKATTEEQKLIEKINA-OH [compound 74]	0.00	10.00	1.50	4.00
–	KPTGAGPKDNGGASGYKDVD-OH [compound 17]	4.00	23.33	2.80	8.00
–	DGKARTAWVDSGAQLGELYY-OH [compound 54]	4.00	26.67	4.20	4.00
–	CC[C@H](C)[C@H](NC(=O)[C@H](CCC(=O)O)NC(=O)[C@H](Cc1c[nH]c2ccccc12)NC(=O)[C@@H](NC(=O)CNC(=O)[C@@H](N)CC(=O)O)C(C)C)C(=O)N[C@@H](CCCCN)C(=O)N[C@@H](CO)C(=O)N[C@@H](CC(=O)O)C(=O)N[C@@H](CCCCN)C(=O)N1CCC[C@H]1C(=O)N[C@@H](CC(C)C)C(=O)N[C@@H](CCCCN)C(=O)NCC(=O)N1CCC[C@H]1C(=O)O [compound 130]	4.00	10.34	1.80	12.50
–	DKYRTFVATFGAASNKAFAE-OH [compound 64]	0.00	36.67	6.00	16.00
71	EIKSTKPEASSGEPVVVHIT [peptide 203 (Phl p 1, 74)]	–	–	–	–
98	GFGMLLRKYGIAAENVIDVK [peptide 225 (Phl p 4, 163)]	–	–	–	–
99	YIITPTNVSHIQSAVVSGRR [peptide 223 (Phl p 4, 55)]	–	–	–	–
98	EQKLIEKINAGFKAALAAAA [peptide 229 (Phl p 5, 21)]	–	–	–	–
97	TPFPHRKGVLFNIQYVNYWF [peptide 227 (Phl p 4, 386)]	–	–	–	–
57	SMGDDHFWAVRGGGGESFGI [peptide 226 (Phl p 4, 195)]	–	–	–	–

Measured binding coverage 25 alleles [4] [%]	Molecule	IFN-gamma % donor coverage (TCL-02 DK1) [1] [%]	Proliferation % donor coverage (TCL-02 DK1) [2] [%]	Proliferation strength (TCL-02 DK1) [2]	IL-5-Fluorospotr % donor coverage (TCL-02 DK1) [3] [%]
69	AGYTPAAPAGAEPAGKATTE [peptide 228 (Phl p 5, 1)]	–	–	–	–
99	DKYRTFVATFGAASNKAFAE [peptide 231 (Phl p 5, 46)]	–	–	–	–
96	KSSKPLVGPFNFRFMSKGGM [peptide 220 (Phl p 3, 56)]	–	–	–	–
84	GRGSGSSFEIKSTKPEASSG [peptide 202 (Phl p 1, 66)]	–	–	–	–
99	FAVVDLNKMRAVWVDGKART [peptide 224 (Phl p 4, 101)]	–	–	–	–
90	WGAIWRIDTPDKLTGPFTVR [peptide 211 (Phl p 1, 193)]	–	–	–	–
92	KDKWIELKESWGAIWRIDTP [peptide 210 (Phl p 1, 183)]	–	–	–	–
81	EWVAMTKGEGGVWTFDSEEP [peptide 214 (Phl p 2, 40)]	–	–	–	–
98	GSDPKKLVLNIKYTRPGDSL [peptide 217 (Phl p 3, 11)]	–	–	–	–
39	HGSEEWEPLTKKGNVWEVKS [peptide 218 (Phl p 3, 38)]	–	–	–	–
100	KEDFLGSLVKEIPPRLLYAK [peptide 222 (Phl p 4, 8)]	–	–	–	–
93	TSKLDAAYKLAYKTAEGATP [peptide 232 (Phl p 5, 84)]	–	–	–	–
92	EPLQGPFNFRFLTEKGMKNV [peptide 216 (Phl p 2, 58)]	–	–	–	–
47	WLDAKSTWYGKPTGAGPKDN [peptide 201 (Phl p 1, 18)]	–	–	–	–
91	TKKGNVWEVKSSKPLVGPFN [peptide 219 (Phl p 3, 47)]	–	–	–	–
40	VRYTTEGGTKTEAEDVIPEG [peptide 212 (Phl p 1, 211)]	–	–	–	–
58	TEAEDVIPEGWKADTSYESK [peptide 213 (Phl p 1, 221)]	–	–	–	–
92	GFKAALAAAAGVPPADKYRT [peptide 230 (Phl p 5, 31)]	–	–	–	–
